Reference: patent US10870647B2, “Imidazopyridine derivative, method for preparing same, and pharmaceutical composition containing same as active ingredient for preventing or treating cancer” (DAEGU-GYEONGBUK MEDICAL INNOVATION FOUNDATION, priority 2016, dated 2020)
Each block holds one compound with its values, some of them ahead of it.

Key:
[1] = test system: STZ diabetes induced white mice; assay: Diabetes (streptozotocin) induced white mice; type: in vivo, SD rats; settings: STZ + Example 11 (30 mg/kg), 8 weeks; Mean ± SE
Description: Blood was collected with a heparinized syringe before sacrificing the experimental animals. HbA1c was measured by using a DCA2000 HbA1c reagent kit (SIEMENS Healthcare Diagnostics, Inc., Tarrytown, N.Y., USA) and blood sugar was measured by using a glucometer (OneTouch Ultra, Johnson & Johnson co., CA, USA). The blood sample obtained above was centrifuged at 3000 rpm at 4° C. for 15 minutes to obtain serum. Serum cystatin C was measured by using an ELISA kit (R&D Systems, Minneapolis, Minn., USA). […]
Male SD white mice at 6-7 weeks of age (Japan SLC Inc., Hamamatsu, Japan) were used. Streptozotocin (STZ, 60 mg/kg, intraperitoneally administered) was administered to the experimental animals to induce type I diabetes. The STZ non-treated control group was treated with sodium citrate buffer (sodium citrate 100 mM, citric acid 100 mM, pH 4.5). To investigate the therapeutic effect of the compound of example 11, the compound was orally administered to the experimental animals for 8 weeks from the beginning of diabetes induction. The effect was compared with that of losartan (1 mg/kg/d) that is an angiotensin receptor antagonist being used clinically as a drug to treat diabetic nephropathy. The diabetic control (treated with STZ alone) was administered with the solvent of Example 11, DMSO/Tween 70.DW (10:5:85).
Table 8 below presents the body weight, kidney weight, ratio of kidney to body weight, HbA1C, blood sugar and urine amount (volume) of the mice of each group, which were measured 8 weeks after the treatment of control (non-treated with STZ), STZ, STZ+compound of Example 11 (30 mg/kg) and STZ+losartan (1 mg/kg).

[2] = target: T1, CSF1R (Homo sapiens, UniProt P07333); assay: Enzyme inhibitory activity (Kd), Reaction Biology Co.; type: binding
T1 construct: purchased Reaction Biology Co
T1 sequence (P07333 20-972): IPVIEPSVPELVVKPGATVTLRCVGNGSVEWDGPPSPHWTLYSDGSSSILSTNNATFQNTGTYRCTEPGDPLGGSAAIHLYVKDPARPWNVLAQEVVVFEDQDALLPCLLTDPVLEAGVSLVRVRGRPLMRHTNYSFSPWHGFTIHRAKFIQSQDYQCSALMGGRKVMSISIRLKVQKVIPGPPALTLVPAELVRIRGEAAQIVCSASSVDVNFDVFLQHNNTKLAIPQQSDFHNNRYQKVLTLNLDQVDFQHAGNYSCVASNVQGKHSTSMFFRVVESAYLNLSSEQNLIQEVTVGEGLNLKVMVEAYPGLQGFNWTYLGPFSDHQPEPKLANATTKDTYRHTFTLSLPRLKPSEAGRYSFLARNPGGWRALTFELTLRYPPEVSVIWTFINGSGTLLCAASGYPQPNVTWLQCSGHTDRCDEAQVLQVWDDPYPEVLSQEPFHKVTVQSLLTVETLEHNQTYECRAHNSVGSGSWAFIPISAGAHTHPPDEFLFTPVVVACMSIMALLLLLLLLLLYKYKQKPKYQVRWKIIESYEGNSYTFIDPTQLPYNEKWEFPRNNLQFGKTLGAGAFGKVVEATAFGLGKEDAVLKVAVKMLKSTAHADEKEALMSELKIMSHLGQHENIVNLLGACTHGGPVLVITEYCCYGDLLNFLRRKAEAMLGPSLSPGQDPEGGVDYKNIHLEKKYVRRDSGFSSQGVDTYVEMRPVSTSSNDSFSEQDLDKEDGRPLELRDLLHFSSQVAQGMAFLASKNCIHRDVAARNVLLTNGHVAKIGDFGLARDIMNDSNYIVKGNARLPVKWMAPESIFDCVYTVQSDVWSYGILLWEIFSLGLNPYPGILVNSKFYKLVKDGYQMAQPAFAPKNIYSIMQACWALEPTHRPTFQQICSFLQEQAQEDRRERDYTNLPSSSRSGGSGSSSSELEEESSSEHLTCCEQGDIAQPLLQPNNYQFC

[3] = target: T2, EPHB6 (Homo sapiens, UniProt O15197); assay: as above; type: binding
T2 construct: purchased Reaction Biology Co
T2 sequence (O15197 32-1021): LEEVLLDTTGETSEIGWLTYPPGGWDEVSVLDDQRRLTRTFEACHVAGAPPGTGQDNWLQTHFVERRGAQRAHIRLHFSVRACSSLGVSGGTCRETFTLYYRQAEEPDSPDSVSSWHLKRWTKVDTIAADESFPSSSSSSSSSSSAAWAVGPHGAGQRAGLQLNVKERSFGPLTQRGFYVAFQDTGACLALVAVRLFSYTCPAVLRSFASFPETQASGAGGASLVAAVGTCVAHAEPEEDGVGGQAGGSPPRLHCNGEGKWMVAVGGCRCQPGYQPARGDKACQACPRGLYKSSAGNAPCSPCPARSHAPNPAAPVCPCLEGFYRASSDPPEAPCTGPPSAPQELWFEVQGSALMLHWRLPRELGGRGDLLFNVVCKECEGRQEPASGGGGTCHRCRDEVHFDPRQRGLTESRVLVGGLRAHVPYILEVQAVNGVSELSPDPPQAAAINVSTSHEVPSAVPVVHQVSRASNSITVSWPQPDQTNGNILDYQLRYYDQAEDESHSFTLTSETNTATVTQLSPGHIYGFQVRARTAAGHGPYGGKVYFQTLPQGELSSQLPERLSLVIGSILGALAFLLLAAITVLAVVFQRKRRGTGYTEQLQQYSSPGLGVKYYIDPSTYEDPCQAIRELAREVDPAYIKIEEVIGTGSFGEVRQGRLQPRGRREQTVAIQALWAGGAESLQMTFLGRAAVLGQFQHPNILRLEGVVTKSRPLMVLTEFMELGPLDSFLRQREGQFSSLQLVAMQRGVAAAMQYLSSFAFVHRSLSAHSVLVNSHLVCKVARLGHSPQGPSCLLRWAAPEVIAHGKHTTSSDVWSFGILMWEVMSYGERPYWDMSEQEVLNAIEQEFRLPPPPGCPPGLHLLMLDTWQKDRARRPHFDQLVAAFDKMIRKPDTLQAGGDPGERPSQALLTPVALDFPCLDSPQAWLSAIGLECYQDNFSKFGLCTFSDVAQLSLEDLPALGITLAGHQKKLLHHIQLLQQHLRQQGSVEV

[4] = target: T3, BLK (Homo sapiens, UniProt P51451); assay: as above; type: binding
T3 construct: purchased Reaction Biology Co
T3 sequence (P51451 whole entry): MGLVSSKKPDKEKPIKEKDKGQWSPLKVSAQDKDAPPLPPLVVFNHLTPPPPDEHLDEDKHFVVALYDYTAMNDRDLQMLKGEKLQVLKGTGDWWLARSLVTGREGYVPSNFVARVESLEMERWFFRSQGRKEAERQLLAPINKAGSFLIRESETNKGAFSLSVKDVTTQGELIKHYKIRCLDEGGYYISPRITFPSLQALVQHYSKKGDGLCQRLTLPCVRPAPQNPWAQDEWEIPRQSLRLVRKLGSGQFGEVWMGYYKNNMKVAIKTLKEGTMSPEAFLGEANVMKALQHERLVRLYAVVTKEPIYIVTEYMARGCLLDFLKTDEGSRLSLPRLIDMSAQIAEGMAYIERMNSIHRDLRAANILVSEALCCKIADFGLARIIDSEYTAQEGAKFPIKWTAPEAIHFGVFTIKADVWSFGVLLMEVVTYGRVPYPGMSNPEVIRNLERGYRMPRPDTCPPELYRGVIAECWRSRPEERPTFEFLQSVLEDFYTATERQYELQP

[5] = target: T4, FGR (Homo sapiens, UniProt P09769); assay: as above; type: binding
T4 construct: purchased Reaction Biology Co
T4 sequence (P09769 whole entry): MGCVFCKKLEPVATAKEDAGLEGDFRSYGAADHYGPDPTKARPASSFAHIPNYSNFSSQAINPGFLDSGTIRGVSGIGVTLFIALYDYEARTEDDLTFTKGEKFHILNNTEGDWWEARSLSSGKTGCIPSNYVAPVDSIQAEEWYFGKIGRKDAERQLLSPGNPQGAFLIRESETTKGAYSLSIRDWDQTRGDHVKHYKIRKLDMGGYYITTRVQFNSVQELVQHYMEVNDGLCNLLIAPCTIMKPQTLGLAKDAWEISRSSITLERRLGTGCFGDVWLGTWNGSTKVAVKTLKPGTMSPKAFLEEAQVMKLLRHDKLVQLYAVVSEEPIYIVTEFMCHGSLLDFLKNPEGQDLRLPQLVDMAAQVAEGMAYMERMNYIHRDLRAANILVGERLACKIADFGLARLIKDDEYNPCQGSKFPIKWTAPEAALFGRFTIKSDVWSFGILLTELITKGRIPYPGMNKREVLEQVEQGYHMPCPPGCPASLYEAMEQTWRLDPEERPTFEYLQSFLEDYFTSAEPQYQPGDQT

[6] = target: T5, FYN (Homo sapiens, UniProt P06241); assay: as above; type: binding
T5 construct: purchased Reaction Biology Co

[7] = target: T6, HCK (Homo sapiens, UniProt P08631); assay: as above; type: binding
T6 construct: purchased Reaction Biology Co
T6 sequence (P08631 whole entry): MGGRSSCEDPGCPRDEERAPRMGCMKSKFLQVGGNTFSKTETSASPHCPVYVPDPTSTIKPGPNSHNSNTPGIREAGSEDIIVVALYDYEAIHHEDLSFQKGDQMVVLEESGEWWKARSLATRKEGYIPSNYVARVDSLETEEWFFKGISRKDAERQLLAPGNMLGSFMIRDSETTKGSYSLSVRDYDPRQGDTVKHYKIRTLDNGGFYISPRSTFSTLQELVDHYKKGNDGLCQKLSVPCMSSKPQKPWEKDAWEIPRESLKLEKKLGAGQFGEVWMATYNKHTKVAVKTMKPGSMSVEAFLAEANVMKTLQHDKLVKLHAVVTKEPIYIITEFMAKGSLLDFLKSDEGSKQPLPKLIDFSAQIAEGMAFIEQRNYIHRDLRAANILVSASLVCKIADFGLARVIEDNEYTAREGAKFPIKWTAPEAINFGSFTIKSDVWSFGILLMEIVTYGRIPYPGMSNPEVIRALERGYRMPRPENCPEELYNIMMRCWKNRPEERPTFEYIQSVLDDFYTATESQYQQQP

[8] = target: T7, LCK (Homo sapiens, UniProt P06239); assay: as above; type: binding
T7 construct: purchased Reaction Biology Co
T7 sequence (P06239 whole entry): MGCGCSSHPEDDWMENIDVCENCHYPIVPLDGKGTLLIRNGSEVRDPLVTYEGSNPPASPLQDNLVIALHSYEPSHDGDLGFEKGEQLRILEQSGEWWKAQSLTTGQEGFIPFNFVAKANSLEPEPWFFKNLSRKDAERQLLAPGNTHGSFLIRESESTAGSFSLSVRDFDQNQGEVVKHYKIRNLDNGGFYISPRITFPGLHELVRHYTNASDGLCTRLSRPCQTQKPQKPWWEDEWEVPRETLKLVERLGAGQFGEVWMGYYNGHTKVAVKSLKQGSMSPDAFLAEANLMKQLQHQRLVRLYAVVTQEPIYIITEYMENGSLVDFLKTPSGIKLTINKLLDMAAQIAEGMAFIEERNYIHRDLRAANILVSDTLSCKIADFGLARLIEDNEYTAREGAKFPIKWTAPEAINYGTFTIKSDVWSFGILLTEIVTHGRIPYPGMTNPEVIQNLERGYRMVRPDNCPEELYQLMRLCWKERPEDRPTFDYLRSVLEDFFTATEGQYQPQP

[9] = target: T8, LYN (Homo sapiens, UniProt P07948); assay: as above; type: binding
T8 construct: purchased Reaction Biology Co

[10] = target: T9, SRC (Homo sapiens, UniProt P12931); assay: as above; type: binding
T9 construct: purchased Reaction Biology Co
T9 sequence (P12931 whole entry): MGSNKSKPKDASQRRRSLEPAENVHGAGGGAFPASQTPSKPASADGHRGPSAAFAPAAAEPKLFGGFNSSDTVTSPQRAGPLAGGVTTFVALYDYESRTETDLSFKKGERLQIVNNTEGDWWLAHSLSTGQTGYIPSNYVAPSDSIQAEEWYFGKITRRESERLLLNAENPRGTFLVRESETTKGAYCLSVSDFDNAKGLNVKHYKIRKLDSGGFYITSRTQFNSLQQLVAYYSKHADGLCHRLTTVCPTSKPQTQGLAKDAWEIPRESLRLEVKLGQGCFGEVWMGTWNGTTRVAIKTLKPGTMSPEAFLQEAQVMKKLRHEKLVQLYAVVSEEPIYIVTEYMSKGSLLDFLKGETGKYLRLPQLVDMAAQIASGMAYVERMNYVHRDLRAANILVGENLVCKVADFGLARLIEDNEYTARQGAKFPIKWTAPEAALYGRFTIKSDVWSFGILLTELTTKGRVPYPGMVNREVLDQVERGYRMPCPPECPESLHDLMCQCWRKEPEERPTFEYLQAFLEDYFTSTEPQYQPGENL

[11] = target: T10, YES (Homo sapiens, UniProt P07947); assay: as above; type: binding
T10 construct: purchased Reaction Biology Co

[12] = target: T11, CDK11 (Homo sapiens, UniProt Q9BWU1); assay: as above; type: binding
T11 construct: purchased Reaction Biology Co
T11 sequence (Q9BWU1 whole entry): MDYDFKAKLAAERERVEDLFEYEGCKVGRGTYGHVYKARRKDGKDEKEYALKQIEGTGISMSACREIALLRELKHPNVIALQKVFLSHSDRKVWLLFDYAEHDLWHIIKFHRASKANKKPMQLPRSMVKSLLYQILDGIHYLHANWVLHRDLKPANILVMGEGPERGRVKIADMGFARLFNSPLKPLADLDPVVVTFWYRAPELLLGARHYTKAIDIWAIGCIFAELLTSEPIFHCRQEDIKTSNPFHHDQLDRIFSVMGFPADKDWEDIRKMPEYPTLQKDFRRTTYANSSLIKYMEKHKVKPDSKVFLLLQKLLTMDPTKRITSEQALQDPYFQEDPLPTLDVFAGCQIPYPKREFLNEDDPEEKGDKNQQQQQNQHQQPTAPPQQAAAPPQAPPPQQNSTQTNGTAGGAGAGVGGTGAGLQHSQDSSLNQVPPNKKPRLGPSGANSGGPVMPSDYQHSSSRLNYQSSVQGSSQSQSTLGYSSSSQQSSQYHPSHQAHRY

SMILES: Cc1ccc(C(=O)Nc2cccc(C(F)(F)F)c2)cc1C#Cc1cnc2c(Nc3cnn(C4CCNCC4)c3)cccn12 [Example 11, 4-methyl-3-((8-((1-(piperidin-4-yl)-1H-pyrazol-4-yl)amino)imidazo[1,2-a]pyridin-3-yl)ethynyl)-N-(3-(trifluoromethyl)phenyl)benzamide]
- HbA1C [1]: 6.7 ± 0.2 %
- Kidney [1]: 1.6 ± 0.1 g
- Urine volume [1]: 93.0 ± 12.5
- Weight [1]: 241 ± 16.0 g
- blood sugar [1]: 392 ± 33 mg/dL
- kidney/Weight ratio [1]: 0.7 ± 0.04

SMILES: Cc1ccc(NC(=O)C2(C(=O)Nc3ccc(F)cc3)CC2)cc1C#Cc1cnc2c(Nc3cnn(C(C)C)c3)cccn12 [Example 78]
- Kd [2]: 440 nM
- Kd [3]: 15 nM

- Kd [4]: 5 nM
- Kd [5]: 13 nM
- Kd [6]: 52 nM
- Kd [7]: 7.7 nM
- Kd [8]: 6.4 nM
- Kd [9]: 15 nM
- Kd [10]: 10 nM
- Kd [11]: 17 nM
SMILES: CCN1CCN(Cc2ccc(NC(=O)c3ccc(C)c(C#Cc4cnc5c(Nc6cnn(C)c6)cccn45)c3)cc2C(F)(F)F)CC1 [Example 8, N-(4-((4-ethylpiperazin-1-yl)methyl)-3-(trifluoromethyl)phenyl)-4-methyl-3-((8-((1-methyl-1H-pyrazol-4-yl)amino)imidazo[1,2-a]pyridin-3-yl)ethynyl)benzamide]

SMILES: Cc1ccc(C(=O)Nc2ccc(CN3CCN(C)CC3)c(C(F)(F)F)c2)cc1C#Cc1cnc2c(Nc3cnn(C)c3)cccn12 [Example 1, 4-methyl-3-((8-((1-methyl-1H-pyrazol-4-yl)amino)imidazo[1,2-a]pyridin-3-yl)ethynyl)-N-(4-((4-methylpiperazin-1-yl)methyl)-3-(trifluoromethyl)phenyl)benzamide]
- Kd [12]: 140 nM
- Kd [2]: 34 nM
